Data on 16 compounds can be found in patent US20210179578A1, “OX1 ANTAGONISTS” (Heptares Therapeutics Limited, priority 2017, published 2021).

One experiment addresses T1, human OX1 receptor (Homo sapiens, UniProt O43613).
T1 sequence (O43613 1-425): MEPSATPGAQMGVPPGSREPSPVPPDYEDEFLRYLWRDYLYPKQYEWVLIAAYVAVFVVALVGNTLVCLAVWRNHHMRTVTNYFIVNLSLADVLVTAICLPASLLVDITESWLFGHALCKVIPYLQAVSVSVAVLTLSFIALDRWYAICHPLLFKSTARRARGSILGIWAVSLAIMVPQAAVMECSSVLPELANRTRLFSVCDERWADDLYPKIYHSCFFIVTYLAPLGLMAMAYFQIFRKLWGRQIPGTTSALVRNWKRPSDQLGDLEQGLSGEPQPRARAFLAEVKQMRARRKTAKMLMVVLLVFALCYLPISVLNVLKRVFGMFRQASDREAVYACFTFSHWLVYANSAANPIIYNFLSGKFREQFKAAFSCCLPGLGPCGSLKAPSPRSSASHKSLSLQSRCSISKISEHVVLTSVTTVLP
The experiment can be described thus: [3H]-radioligand binding assay, OX1. Also noted: made in house; host or cells: SF21 insect cells (baculovirus; P0 virus made in SF9). The following applies: [3H]-radioligand binding, human OX1 membranes; read-out: pKi average OX1 (converted). An excerpt: (§1) Cloning, Baculovirus generation, large-scale infection of SF21 cells and membrane preparation. Human OX1 or OX2 receptor were cloned into Invitrogen's (ThermoFisher Scientific, UK) Bac-to-Bac Baculovirus Expression System. P0 baculovirus was generated by transfecting SF9 cells with bacmid DNA using Cellfectin® II transfection reagent (ThermoFisher Scientific, UK, Catalog number 10362-100). Following P0 generation P1 virus was then generated ready for large scale infection and membrane preparation. SF21 cells were grown in expression medium ESF921 (Expression Systems, USA, catalog number 96-001-01) supplemented with 10% heat-inactivated FBS and 1% Pen/Strep and were infected at a cell density of 2.5×10^6 cells/mL and a multiplicity of infection of 1.0 for both human OX1R and OX2R. Incubation was carried out at over 48 h in a shaking incubator set at 27° C. The cell culture was then centrifuged at 2,500 rcf for 10 min at 4° C. The pellets were resuspended in cold PBS supplemented with Roche's Complete EDTA-free protease inhibitor cocktail tablets (Roche Applied Sciences, catalog number 05056489001), 1 mM PMSF and 1 mM EDTA. The resuspended cell paste was then centrifuged at 3,273 rcf for 12 min at 4° C. The supernatant was discarded and the pellet frozen at −80° C. The cell pellet from a 4 L culture was resuspended in buffer containing 50 mM HEPES pH 7.5, 150 mM NaCl, 8 Roche EDTA-Free protease inhibitor cocktail tablets and 1 mM PMSF. The suspension was left stirring at rt for 1 h and then homogenised for 90 s at 9,500 rpm using a VDI 25 (VWR, USA) homogeniser. The cells were then lysed using a Microfluidiser processor M-110L Pneumatic (Microfluidics, USA) at 60 PSI and membranes collected by ultracentrifugation at 204.7 k×g for 1 h. The supernatant was discarded and the pellet was resuspended and homogenised in 90 s at 9,500 rpm in 50 mL (25 mL for each 2 L culture) of buffer containing 50 mM Hepes pH 7.5, 150 mM NaCl, 3 Roche EDTA-free protease inhibitor cocktail tablets and 1 mM PMSF. The resulting membranes were then stored at −80° C.
(§2) [^3H]-radioligand binding assay. After thawing, membrane homogenates were resuspended in the binding buffer (8.5 mM HEPES, pH 7.4, 1.3 mM CaCl2, 1.2 mM MgSO4, 118 mM NaCl, 4.7 mM KCl, 4 mM NaHCO3, 1.2 mM KH2PO4, 11 mM glucose) to a final assay concentration of 6.4 μg (OX1) or 1.4 μg (OX2) protein per well. Saturation isotherms were determined by the addition of various concentrations (0-30 nM) of [^3H]-4-(2,6-difluoro-4-methoxybenzyl)-2-(5,6-dimethoxypyridin-3-yl)-2H-1,2,4-benzothiadiazin-3(4H)-one 1,1-dioxide (Christopher et al, MedChemComm., 2015, 6, 947-955) in a total reaction volume of 250 μL for 90 min at rt. At the end of the incubation, membranes were filtered onto a 96-well GF/B filter pre-incubated with 0.5% polyethylenimine, with a Tomtec cell harvester and washed 5 times with 0.5 mL distilled water. Non-specific binding (NSB) was measured in the presence of 3.33 μM [4-(5-chloro-1,3-benzoxazol-2-yl)-7-methyl-1,4-diazepan-1-yl][5-methyl-2-(2H-1,2,3-triazol-2-yl)phenyl]methanone (Wertz et al, Angew. Chem. Int. Ed., 2011, 50, 11511-11515). Radioactivity on the filter was counted (1 min) on a Microbeta radiometric plate counter (Perkin Elmer) after addition of 50 μL of scintillation fluid (LabLogic: Part #SG-BXX-14). […] IC50 values were derived from the inhibition curve and the equilibrium dissociation constant (Ki) values were calculated using the Cheng-Prusoff equation.

The next experiment addresses T2, human OX2 receptor (Homo sapiens, UniProt O43614).
T2 sequence (O43614 1-444): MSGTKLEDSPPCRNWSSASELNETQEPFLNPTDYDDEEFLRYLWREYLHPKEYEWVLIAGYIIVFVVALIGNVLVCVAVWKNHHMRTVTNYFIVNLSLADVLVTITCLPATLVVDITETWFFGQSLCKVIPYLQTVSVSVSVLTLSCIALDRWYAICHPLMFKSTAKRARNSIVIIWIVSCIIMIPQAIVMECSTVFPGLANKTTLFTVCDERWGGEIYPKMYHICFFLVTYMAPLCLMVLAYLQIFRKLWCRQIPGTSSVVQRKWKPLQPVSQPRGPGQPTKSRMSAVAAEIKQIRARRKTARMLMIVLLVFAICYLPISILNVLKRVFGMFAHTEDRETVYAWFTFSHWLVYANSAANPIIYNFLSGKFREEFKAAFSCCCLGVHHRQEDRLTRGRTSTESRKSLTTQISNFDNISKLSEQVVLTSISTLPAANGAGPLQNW
As to the kind of experiment: [3H]-radioligand binding assay, OX2. The following applies: [3H]-radioligand binding, human OX2 membranes; read-out: pKi average OX2 (converted). Also noted: made in house; host or cells: SF21 insect cells (baculovirus; P0 virus made in SF9).
Text: as §1, §2

Take `COc1ncc(N2CCc3c(F)cccc3N(Cc3c(C)cc(Br)cc3F)C2=O)cc1S(C)(=O)=O` [Example 17, 1-(4-bromo-2-fluoro-6-methylbenzyl)-6-fluoro-3-[6-methoxy-5-(methylsulfonyl)pyridin-3-yl]-1,3,4,5-tetrahydro-2H-1,3-benzodiazepin-2-one]: the Ki on human OX1 receptor was 0.794 nM.

With `COCc1cc(F)c(CN2C(=O)N(c3cnc(OC)c(C(C)(F)F)c3)CCc3c(F)cccc32)c(F)c1` [Example 7, 3-[5-(1,1-difluoroethyl)-6-methoxypyridin-3-yl]-1-[2,6-difluoro-4-(methoxymethyl)benzyl]-6-fluoro-1,3,4,5-tetrahydro-2H-1,3-benzodiazepin-2-one], the Ki at human OX1 receptor is 1 nM.

With `COc1ncc(N2CCc3c(F)cccc3N(Cc3c(F)cc(Br)cc3F)C2=O)cc1S(C)(=O)=O` [Example 14, 1-(4-bromo-2,6-difluorobenzyl)-6-fluoro-3-[6-methoxy-5-(methylsulfonyl)pyridin-3-yl]-1,3,4,5-tetrahydro-2H-1,3-benzodiazepin-2-one], the Ki at human OX2 receptor is > 251 nM; at human OX1 receptor, 3.16 nM.

In the case of `CCCc1cc(F)c(CN2C(=O)N(c3ccc(C)c(S(C)(=O)=O)c3)CCc3c(F)cccc32)c(F)c1` [Example 28, 1-(2,6-difluoro-4-propylbenzyl)-6-fluoro-3-[4-methyl-3-(methylsulfonyl)phenyl]-1,3,4,5-tetrahydro-2H-1,3-benzodiazepin-2-one], the Ki is > 316 nM at human OX2 receptor and 2 nM on human OX1 receptor.

Turning to `COCc1cc(F)c(CN2C(=O)N(c3cnc(C)c(C(C)(F)F)c3)CCc3c(F)cccc32)c(F)c1` [Example 33, 3-[5-(1,1-difluoroethyl)-6-methylpyridin-3-yl]-1-[2,6-difluoro-4-(methoxymethyl)benzyl]-6-fluoro-1,3,4,5-tetrahydro-2H-1,3-benzodiazepin-2-one], the Ki on human OX2 receptor is > 251 nM; at human OX1 receptor, 0.631 nM.

For `Cc1ncc(N2CCc3c(F)cccc3N(Cc3c(F)cc(Br)cc3F)C2=O)cc1C(C)(F)F` [Example 32, 1-(4-bromo-2,6-difluorobenzyl)-3-[5-(1,1-difluoroethyl)-6-methylpyridin-3-yl]-6-fluoro-1,3,4,5-tetrahydro-2H-1,3-benzodiazepin-2-one], the Ki at human OX2 receptor is 50.1 nM; at human OX1 receptor it was 0.631 nM.

With `COc1ncc(N2CCc3c(F)cccc3N(Cc3c(F)cc(Br)cc3F)C2=O)cc1C(C)(F)F` [Example 3, 1-(4-bromo-2,6-difluorobenzyl)-3-[5-(1,1-difluoroethyl)-6-methoxypyridin-3-yl]-6-fluoro-1,3,4,5-tetrahydro-2H-1,3-benzodiazepin-2-one], the figures for the Ki on human OX2 receptor and at human OX1 receptor were > 79.4 nM and 1.26 nM, respectively.

Turning to `COc1cc(F)c(CN2C(=O)N(c3cnc(OC)c(C(C)(F)F)c3)CCc3c(F)cccc32)c(F)c1` [Example 8, 3-[5-(1,1-difluoroethyl)-6-methoxypyridin-3-yl]-1-(2,6-difluoro-4-methoxybenzyl)-6-fluoro-1,3,4,5-tetrahydro-2H-1,3-benzodiazepin-2-one], the Ki on human OX1 receptor was 0.398 nM.

Turning to `COc1ncc(N2CCc3c(F)cccc3N(Cc3c(F)cc(Cl)cc3F)C2=O)cc1C(C)(F)F` [Example 9, 1-(4-chloro-2,6-difluorobenzyl)-3-[5-(1,1-difluoroethyl)-6-methoxypyridin-3-yl]-6-fluoro-1,3,4,5-tetrahydro-2H-1,3-benzodiazepin-2-one], the Ki on human OX1 receptor is 0.794 nM.

Take `Cc1cc(C)c(S(C)(=O)=O)cc1N1CCc2ccccc2N(Cc2c(F)cc(OC(C)C)cc2F)C1=O` [Example 30, 1-[2,6-difluoro-4-(propan-2-yloxy)benzyl]-3-[2,4-dimethyl-5-(methylsulfonyl)phenyl]-1,3,4,5-tetrahydro-2H-1,3-benzodiazepin-2-one]: the Ki at human OX1 receptor was 1.26 nM.

For the compound `[2H]C([2H])([2H])OCc1cc(F)c(CN2C(=O)N(c3cnc(OC)c(C(C)(F)F)c3)CCc3c(F)cccc32)c(F)c1` [Example 5, 3-[5-(1,1-difluoroethyl)-6-methoxypyridin-3-yl]-1-(2,6-difluoro-4-{[(^2H3)methyloxy]methyl}benzyl)-6-fluoro-1,3,4,5-tetrahydro-2H-1,3-benzodiazepin-2-one], the Ki at human OX1 receptor is 0.316 nM.

With `[2H]C([2H])([2H])Oc1ncc(N2CCc3c(F)cccc3N(Cc3c(F)cc(Br)cc3F)C2=O)cc1C(C)(F)F` [Example 2, 1-(4-bromo-2,6-difluorobenzyl)-3-{5-(1,1-difluoroethyl)-6-[(^2H3)methyloxy]pyridin-3-yl}-6-fluoro-1,3,4,5-tetrahydro-2H-1,3-benzodiazepin-2-one], at human OX1 receptor, the Ki was 0.631 nM.

Turning to `COc1ncc(N2CCc3c(F)cccc3N(Cc3c(C)cc(F)cc3F)C2=O)cc1S(C)(=O)=O` [Example 18, 1-(2,4-difluoro-6-methylbenzyl)-6-fluoro-3-[6-methoxy-5-(methylsulfonyl)pyridin-3-yl]-1,3,4,5-tetrahydro-2H-1,3-benzodiazepin-2-one], at human OX1 receptor, the Ki was 1.26 nM.

Take `Cc1ncc(N2CCc3c(F)cccc3N(Cc3c(F)cc(Br)cc3F)C2=O)cc1OC(F)F` [Example 37, 1-(4-bromo-2,6-difluorobenzyl)-3-[5-(difluoromethoxy)-6-methylpyridin-3-yl]-6-fluoro-1,3,4,5-tetrahydro-2H-1,3-benzodiazepin-2-one]: at human OX1 receptor, the Ki is 1.58 nM.

For the compound `COc1cc(F)c(CN2C(=O)N(c3cnc(OC)c(S(C)(=O)=O)c3)CCc3c(F)cccc32)c(F)c1` [Example 16, 1-(2,6-difluoro-4-methoxybenzyl)-6-fluoro-3-[6-methoxy-5-(methylsulfonyl)pyridin-3-yl]-1,3,4,5-tetrahydro-2H-1,3-benzodiazepin-2-one], the Ki on human OX1 receptor is 0.794 nM.

In the case of `COc1ncc(C2CCc3c(F)cccc3N(Cc3c(F)cc(Br)cc3F)C2=O)cc1S(C)(=O)=O` (single isomer, unassigned) [Example 21, 1-(4-bromo-2,6-difluorobenzyl)-6-fluoro-3-[6-methoxy-5-(methylsulfonyl)pyridin-3-yl]-1,3,4,5-tetrahydro-2H-1-benzazepin-2-one], the Ki at human OX1 receptor is 0.316 nM.
